Marks after values point to notes of the source that are not given here.
Tests used:
Format in all cases: in vivo, broiler chickens (Ross 308)
[1] = system: male broilers subjected to chronic cyclic heat stress; assay: Rectal temperature and panting frequency during heat stress
Experimental: The finisher period started at d-21, and the chronic cyclic heat stress (HS) protocol was applied from d-24 until d-39. Starting from d-24, the temperature was increased from 22° C. to 34° C. for 6 hours per day (from 9:00 to 15:00) with relative air humidity (RH) between 52 and 58%. From 8:00 to 9:00, the temperature was increased from 22° C. to 34° C., and from 15:00 to 16:00, the temperature was decreased from 34° C. to 22° C. The rest of the day the temperature was 22° C. The room was equipped with heaters with thermostats, and air circulators to enable the desired temperature and RH to be maintained, providing sufficient ventilation and air conditions. RH was adjusted with manual spraying of water on stable walls, periodically. The temperature and the RH were recorded at 10-min intervals with a dry bulb thermo-hygrometer (Escort RH iLog, Escort Verification Technologies Inc., Buchanan, United States).
Rectal temperature and panting frequency (video analyses) (for 2 selected birds per pen on 3 days: d-24, d-31 and d-38, measured after 4 h of heat stress that day)

[2] = system: male broilers subjected to chronic cyclic heat stress; assay: Parameters in breast muscle of birds sampled at d-23, d-25 and d-39
Experimental: (§1) Sampling of one bird per pen (with weight close to average weight of the pen) on d-23, d-25 and on d-39 (on d-25 and d-39, sampling starts after >3 h of heat stress that day; 108 birds in total) • malondialdehyde, HSP70 (Chicken Heat Shock Protein 70, Hsp-70 ELISA Kit) Cusabio Code CSB-E11196Ch), HSP90 (Chicken Heat Shock Protein 90, HSP-90 ELISA Kit; Cusabio Code CSB-E12873C), GPx, SOD in plasma; GSH/GSSG in erythrocytes; and T3, T4 and nitric oxide in serum • Breast muscle and liver: malondialdehyde, AOX (GPx, SOD), GSH/GSSG
(§2) For physiological measurements, time of sampling (representing the number of minutes between the beginning of heat stress and the precise moment of sampling of the bird that day), if appropriate, was included in the model as a covariable if significant as well. Orthogonal contrasts were applied to test for linear and quadratic effects upon incremental levels of DMS supplementation in the diet. Means are given as estimated marginal means (least square means). Means were separated using the Tukey post-hoc test. Differences were considered significant when p<0.05 and as a trend for significance when p<0.1.

[3] = system: male broilers subjected to chronic cyclic heat stress; assay: Parameters in liver of birds sampled at d-23, d-25 and d-39
Experimental: as §1, §2

[4] = 0.1% DMS in diet (T2), Total, all days
[5] = 0.1% DMS in diet (T2), d-24, during heat stress
[6] = 0.1% DMS in diet (T2), d-31, during heat stress
[7] = 0.1% DMS in diet (T2), d-38, during heat stress
[8] = 0.2% DMS in diet (T3), Total, all days
[9] = 0.2% DMS in diet (T3), d-24, during heat stress
[10] = 0.2% DMS in diet (T3), d-31, during heat stress
[11] = 0.2% DMS in diet (T3), d-38, during heat stress

CS(C)(=O)=O [DMS, dimethyl sulfone]
Panting [1, 4]: 141 #/min
Rectal temperature [1, 4]: 42.6^ab ° C.
Panting [1, 5]: 119^ab #/min
Rectal temperature [1, 5]: 42.3 °C
Panting [1, 6]: 158 #/min
Rectal temperature [1, 6]: 42.9 °C
Panting [1, 7]: 147 #/min
Rectal temperature [1, 7]: 42.7 °C
Panting [1, 8]: 137 #/min
Rectal temperature [1, 8]: 42.5^b ° C.
Panting [1, 9]: 112^b #/min
Rectal temperature [1, 9]: 42.3 °C
Panting [1, 10]: 143 #/min
Rectal temperature [1, 10]: 42.6 °C
Panting [1, 11]: 152 #/min
Rectal temperature [1, 11]: 42.6 °C
Glutathione (GSH) ([2]; 0.1% DMS in diet (T2), d-23): 1.00 µmol/g
Glutathione peroxidase ([2]; 0.1% DMS in diet (T2), d-23): 0.39 U/g
Malondialdehyde ([2]; 0.1% DMS in diet (T2), d-23): 4.72 nmol/g
Super oxide dismutase ([2]; 0.1% DMS in diet (T2), d-23): 29.7 U/g
Glutathione (GSH) ([2]; 0.1% DMS in diet (T2), d-25): 1.30^ab μmol/g
Glutathione peroxidase ([2]; 0.1% DMS in diet (T2), d-25): 0.42 U/g
Malondialdehyde ([2]; 0.1% DMS in diet (T2), d-25): 4.6 nmol/g
Super oxide dismutase ([2]; 0.1% DMS in diet (T2), d-25): 27.3 U/g
Glutathione (GSH) ([2]; 0.1% DMS in diet (T2), d-39): 1.46 µmol/g
Glutathione peroxidase ([2]; 0.1% DMS in diet (T2), d-39): 0.46 U/g
Malondialdehyde ([2]; 0.1% DMS in diet (T2), d-39): 5.23 nmol/g
Super oxide dismutase ([2]; 0.1% DMS in diet (T2), d-39): 27.4 U/g
Glutathione (GSH) ([2]; 0.2% DMS in diet (T3), d-23): 1.10 µmol/g
Glutathione peroxidase ([2]; 0.2% DMS in diet (T3), d-23): 0.38 U/g
Malondialdehyde ([2]; 0.2% DMS in diet (T3), d-23): 4.5 nmol/g
Super oxide dismutase ([2]; 0.2% DMS in diet (T3), d-23): 32.6 U/g
Glutathione (GSH) ([2]; 0.2% DMS in diet (T3), d-25): 1.39^a μmol/g
Glutathione peroxidase ([2]; 0.2% DMS in diet (T3), d-25): 0.44 U/g
Malondialdehyde ([2]; 0.2% DMS in diet (T3), d-25): 4.5 nmol/g
Super oxide dismutase ([2]; 0.2% DMS in diet (T3), d-25): 28.1 U/g
Glutathione (GSH) ([2]; 0.2% DMS in diet (T3), d-39): 1.56 µmol/g
Glutathione peroxidase ([2]; 0.2% DMS in diet (T3), d-39): 0.50 U/g
Malondialdehyde ([2]; 0.2% DMS in diet (T3), d-39): 5.57 nmol/g
Super oxide dismutase ([2]; 0.2% DMS in diet (T3), d-39): 26.2 U/g
GSSG/GSH ([3]; 0.1% DMS in diet (T2), d-23): 0.016
Glutathione (GSH) ([3]; 0.1% DMS in diet (T2), d-23): 4.69 µmol/g
Glutathione peroxidase ([3]; 0.1% DMS in diet (T2), d-23): 17.0 U/g
Malondialdehyde ([3]; 0.1% DMS in diet (T2), d-23): 43.9 nmol/g
Oxidized glutathione (GSSG) ([3]; 0.1% DMS in diet (T2), d-23): 0.077 µmol/g
Super oxide dismutase ([3]; 0.1% DMS in diet (T2), d-23): 332 U/g
GSSG/GSH ([3]; 0.1% DMS in diet (T2), d-25): 0.017
Glutathione (GSH) ([3]; 0.1% DMS in diet (T2), d-25): 4.26 µmol/g
Glutathione peroxidase ([3]; 0.1% DMS in diet (T2), d-25): 17.8 U/g
Malondialdehyde ([3]; 0.1% DMS in diet (T2), d-25): 48.6 nmol/g
Oxidized glutathione (GSSG) ([3]; 0.1% DMS in diet (T2), d-25): 0.070 µmol/g
Super oxide dismutase ([3]; 0.1% DMS in diet (T2), d-25): 292 U/g
GSSG/GSH ([3]; 0.1% DMS in diet (T2), d-39): 0.027
Glutathione (GSH) ([3]; 0.1% DMS in diet (T2), d-39): 3.74 µmol/g
Glutathione peroxidase ([3]; 0.1% DMS in diet (T2), d-39): 17.5 U/g
Malondialdehyde ([3]; 0.1% DMS in diet (T2), d-39): 46.4 nmol/g
Oxidized glutathione (GSSG) ([3]; 0.1% DMS in diet (T2), d-39): 0.093 µmol/g
Super oxide dismutase ([3]; 0.1% DMS in diet (T2), d-39): 356 U/g
GSSG/GSH ([3]; 0.2% DMS in diet (T3), d-23): 0.015
Glutathione (GSH) ([3]; 0.2% DMS in diet (T3), d-23): 5.04 µmol/g
Glutathione peroxidase ([3]; 0.2% DMS in diet (T3), d-23): 16.9 U/g
Malondialdehyde ([3]; 0.2% DMS in diet (T3), d-23): 44.6 nmol/g
Oxidized glutathione (GSSG) ([3]; 0.2% DMS in diet (T3), d-23): 0.076 µmol/g
Super oxide dismutase ([3]; 0.2% DMS in diet (T3), d-23): 317 U/g
GSSG/GSH ([3]; 0.2% DMS in diet (T3), d-25): 0.017
Glutathione (GSH) ([3]; 0.2% DMS in diet (T3), d-25): 4.14 µmol/g
Glutathione peroxidase ([3]; 0.2% DMS in diet (T3), d-25): 17.9 U/g
Malondialdehyde ([3]; 0.2% DMS in diet (T3), d-25): 49.1 nmol/g
Oxidized glutathione (GSSG) ([3]; 0.2% DMS in diet (T3), d-25): 0.069 µmol/g
Super oxide dismutase ([3]; 0.2% DMS in diet (T3), d-25): 289 U/g
GSSG/GSH ([3]; 0.2% DMS in diet (T3), d-39): 0.025
Glutathione (GSH) ([3]; 0.2% DMS in diet (T3), d-39): 3.94 µmol/g
Glutathione peroxidase ([3]; 0.2% DMS in diet (T3), d-39): 18.6 U/g
Malondialdehyde ([3]; 0.2% DMS in diet (T3), d-39): 48 nmol/g
Oxidized glutathione (GSSG) ([3]; 0.2% DMS in diet (T3), d-39): 0.097 µmol/g
Super oxide dismutase ([3]; 0.2% DMS in diet (T3), d-39): 346 U/g

Reference: patent US20230225990A1, “DIMETHYL SULFONE FOR TREATMENT OF CHRONICALLY HEAT STRESSED POULTRY” (Evonik Operations GmbH, priority 2020, published 2023)
